# From US5475018A, “1,5-diphenyl pyrazole compounds for treatment of inflammation” (G. D. Searle & Co., priority 1993, dated 1995)
# How the values were obtained:
# [1] = Rat Carrageenan-induced Analgesia Test; type: in vivo, Male Sprague-Dawley rats; settings: oral, inhibition of hyperalgesic foot withdrawal, 3 h after carrageenan
# Protocol: (§1) The carrageenan foot edema test was performed with materials, reagents and procedures essentially as described by Winter et al (Proc. Soc. Exp. Biol. Med., 111, 544 (1962)). Male Sprague-Dawley rats were selected in each group so that the average body weight was as close as possible. Rats were fasted with free access to water for over sixteen hours prior to the test. The rats were dosed orally (1 mL) with compounds suspended in vehicle containing 0.5% methylcellulose and 0.025% surfactant, or with vehicle alone. One hour later a subplantar injection of 0.1 mL of 1% solution of carrageenan/sterile 0.9% saline was administered and the volume of the injected foot was measured with a displacement plethysmometer connected to a pressure transducer with a digital indicator. Three hours after the injection of the carrageenan, the volume of the foot was again measured. The average foot swelling in a group of drug-treated animals was compared with that of a group of placebo-treated animals and the percentage inhibition of edema was determined (Otterness and Bliven, Laboratory Models for Testing NSAIDs, in Non-steroidal Anti-Inflammatory Drugs, (J. Lombardino, ed. 1985)).
# The analgesia test using rat carrageenan was performed with materials, reagents and procedures essentially as described by Hargreaves et al (Pain, 32, 77 (1988)). […] The time until the rat withdraws its foot was then measured. […]
# [2] = Rat Carrageenan Foot Pad Edema Test; type: in vivo, Male Sprague-Dawley rats; settings: oral, dosed 1 h before carrageenan, foot volume 3 h after carrageenan, vs placebo
# Protocol: as §1
smiles,measurement,setting,value
"CS(=O)(=O)c1ccc(-n2nc(C(F)(F)F)cc2-c2ccc(F)cc2)cc1 [Example 1, 5-(4-Fluorophenyl)-1-[4-(methylsulfonyl)phenyl]-3-(trifluoromethyl)pyrazole]",ANALGESIA % Inhibition @ 20 mg/kg body weight,[1],37%
same,RAT PAW EDEMA % Inhibition @ 10 mg/kg body weight,[2],38%
